# What was measured:
# Format in all cases: cell-based
# polio virus Sabin 1 = experiment: organism not typed; conditions: read-out: Polio 1 inhibition capacity (IC50)
# Enterovirus 6 = experiment: In vitro CPE assay in mammalian cell culture, EV6; conditions: viral cytopathic effect in mammalian cell culture, read-out: EV6 inhibition capacity (IC50)
# coxsackie B2 virus = experiment: In vitro CPE assay in mammalian cell culture, B2; conditions: viral cytopathic effect in mammalian cell culture, read-out: B2 inhibition capacity (IC50)
# coxsackie B3 virus = experiment: In vitro CPE assay in mammalian cell culture, B3; conditions: Enterovirus B, viral cytopathic effect in mammalian cell culture, read-out: B3 inhibition capacity (IC50)
# Enterovirus 68 = experiment: In vitro CPE assay in mammalian cell culture, EV68; conditions: Enterovirus D, viral cytopathic effect in mammalian cell culture, read-out: EV68 inhibition capacity (IC50)
# coxsackie B4 virus = experiment: In vitro CPE assay in mammalian cell culture, B4; conditions: Enterovirus B, viral cytopathic effect in mammalian cell culture, read-out: B4 inhibition capacity (IC50)
# Enterovirus 71 = experiment: In vitro CPE assay in mammalian cell culture, EV71; conditions: Enterovirus A, viral cytopathic effect in mammalian cell culture, read-out: EV71 inhibition capacity (IC50)
# Enterovirus 30 = experiment: In vitro CPE assay in mammalian cell culture, EV30; conditions: viral cytopathic effect in mammalian cell culture, read-out: EV30 inhibition capacity (IC50)
# coxsackie B1 virus = experiment: In vitro CPE assay in mammalian cell culture, B1; conditions: viral cytopathic effect in mammalian cell culture, read-out: B1 inhibition capacity (IC50)
# coxsackie B5 virus = experiment: In vitro CPE assay in mammalian cell culture, B5; conditions: viral cytopathic effect in mammalian cell culture, read-out: B5 inhibition capacity (IC50)
Compound,IC50 (polio virus Sabin 1),IC50 (Enterovirus 6),IC50 (coxsackie B2 virus),IC50 (coxsackie B3 virus),IC50 (Enterovirus 68),IC50 (coxsackie B4 virus),IC50 (Enterovirus 71),IC50 (Enterovirus 30),IC50 (coxsackie B1 virus),IC50 (coxsackie B5 virus)
"Cc1cc(NCc2ccc(Cl)cc2)c2nc(C)c(-c3ccc4c(c3)c(C)nn4C)n2n1 [Example 3, N-(4-chlorobenzyl)-3-(1,3-dimethyl-1H-indazol-5-yl)-2,6-dimethylimidazo[1,2-b]pyridazin-8-amine]",< 1000 nM,< 1000 nM,< 1000 nM,< 1000 nM,< 1000 nM,< 1000 nM,< 1000 nM,< 1000 nM,< 100 nM,–
"COc1ccc(CNc2cc(C)nn3c(-c4ccc5c(c4)c(C)nn5C)c(C)nc23)cn1 [Example 4, 3-(1,3-dimethyl-1H-indazol-5-yl)-N-((6-methoxypyridin-3-yl)methyl)-2,6-dimethylimidazo[1,2-b]pyridazin-8-amine]",< 1000 nM,< 1000 nM,< 100 nM,< 100 nM,< 1000 nM,< 100 nM,< 100 nM,< 100 nM,< 100 nM,–
"Cc1cc(NCc2cccs2)c2nc(C)c(-c3ccc4c(c3)c(C)nn4C)n2n1 [Example 5, 3-(1,3-dimethyl-1H-indazol-5-yl)-2,6-dimethyl-N-(thiophen-2-ylmethyl)imidazo[1,2-b]pyridazin-8-amine]",< 100 nM,< 100 nM,< 100 nM,< 100 nM,< 1000 nM,< 100 nM,< 100 nM,< 100 nM,< 1 nM,–
"COc1ccc(CNc2cc(C)nn3c(-c4ccc5c(c4)c(C)nn5C)c(C)nc23)cc1 [Example 6, 3-(1,3-dimethyl-1H-indazol-5-yl)-N-(4-methoxybenzyl)-2,6-dimethylimidazo[1,2-b]pyridazin-8-amine]",< 1000 nM,–,< 1000 nM,< 1000 nM,< 1000 nM,< 1000 nM,–,< 1000 nM,< 1000 nM,< 1000 nM
"Cc1ccc(CNc2cc(C)nc3c(-c4ccc5c(c4)c(C)nn5C)c(C)nn23)cn1 [Example 9, 3-(1,3-dimethyl-1H-indazol-5-yl)-2,5-dimethyl-N-((6-methylpyridin-3-yl)methyl)pyrazolo[1,5-a]pyrimidin-7-amine]",< 100 nM,< 1000 nM,< 10 nM,< 10 nM,< 100 nM,< 100 nM,< 100 nM,< 100 nM,< 10 nM,< 100 nM
"COc1ccc(CNc2cc(C)nc3c(-c4ccc5c(c4)c(C)nn5C)c(C)nn23)cc1 [Example 10, 3-(1,3-dimethyl-1H-indazol-5-yl)-N-(4-methoxybenzyl)-2,5-dimethylpyrazolo[1,5-a]pyrimidin-7-amine]",< 1000 nM,< 1000 nM,< 1000 nM,< 100 nM,< 1000 nM,< 100 nM,< 1000 nM,< 100 nM,< 1000 nM,< 100 nM
"Cc1cc(NCc2ccc(Cl)cc2)n2nc(C)c(-c3ccc4c(c3)c(C)nn4C)c2n1 [Example 11, N-(4-chlorobenzyl)-3-(1,3-dimethyl-1H-indazol-5-yl)-2,5-dimethylpyrazolo[1,5-a]pyrimidin-7-amine]",< 1000 nM,< 1000 nM,< 1000 nM,< 1000 nM,< 1000 nM,< 100 nM,< 1000 nM,< 1000 nM,< 1000 nM,< 1000 nM
"COc1ccc(CNc2cc(C)nc3c(-c4ccc5c(c4)c(C)nn5C)c(C)nn23)cn1 [Example 14, 3-(1,3-dimethyl-1H-indazol-5-yl)-N-((6-methoxypyridin-3-yl)methyl)-2,5-dimethylpyrazolo[1,5-a]pyrimidin-7-amine]",< 100 nM,< 1000 nM,< 1000 nM,< 10 nM,< 1000 nM,< 10 nM,< 1000 nM,< 100 nM,< 1000 nM,< 1000 nM
"Cc1cc(NCc2cccs2)n2nc(C)c(-c3ccc4c(c3)c(C)nn4C)c2n1 [Example 15, 3-(1,3-dimethyl-1H-indazol-5-yl)-2,5-dimethyl-N-(thiophen-2-ylmethyl)pyrazolo[1,5-a]pyrimidin-7-amine]",< 100 nM,< 100 nM,< 100 nM,< 100 nM,< 100 nM,< 100 nM,< 100 nM,< 100 nM,< 100 nM,< 100 nM
"Cc1cc(NCc2ccc(NS(C)(=O)=O)cc2)n2nc(C)c(-c3ccc4c(c3)c(C)nn4C)c2n1 [Example 16, N-(4-(((3-(1,3-dimethyl-1H-indazol-5-yl)-2,5-dimethylpyrazolo[1,5-a]pyrimidin-7-yl)amino)meth-yl)phenyl)methane-sulfonamide]",< 1000 nM,< 1000 nM,< 1000 nM,< 100 nM,< 1000 nM,< 100 nM,< 1000 nM,< 1000 nM,< 1000 nM,< 1000 nM
"Cc1cc(NCc2ccc(C(F)(F)F)nc2)n2nc(C)c(-c3ccc4c(c3)c(C)nn4C)c2n1 [Example 17, 3-(1,3-dimethyl-1H-indazol-5-yl)-2,5-dimethyl-N-((6-trifluoromethylpyridin-3-yl)methyl)pyrazolo[1,5-a]pyrimidin-7-amine]",< 1000 nM,< 1000 nM,< 1000 nM,< 1000 nM,–,< 1000 nM,< 100 nM,< 1000 nM,–,< 1000 nM
"Cc1cc(NCc2ccccc2)n2nc(C)c(-c3ccc4c(c3)c(C)nn4C)c2n1 [Example 18, N-(benzyl)-3-(1,3-dimethyl-1H-indazol-5-yl)-2,5-dimethylpyrazolo[1,5-a]pyrimidin-7-amine]",< 100 nM,< 1000 nM,< 100 nM,< 100 nM,–,< 1000 nM,< 10 nM,–,–,< 1000 nM
"Cc1cc(NCc2ccc(F)cc2)n2nc(C)c(-c3ccc4c(c3)c(C)nn4C)c2n1 [Example 19, N-(4-fluorobenzyl)-3-(1,3-dimethyl-1H-indazol-5-yl)-2,5-dimethylpyrazolo[1,5-a]pyrimidin-7-amine]",< 1000 nM,< 1000 nM,< 1000 nM,< 100 nM,–,< 1000 nM,< 100 nM,–,–,< 1000 nM
"COc1ccc(CNc2nc(C)nc3c(-c4ccc5c(c4)c(C)nn5C)c(C)nn23)cc1 [Example 21, 8-(1,3-dimethyl-1H-indazol-5-yl)-N-(4-methoxybenzyl)-2,7-dimethylpyrazolo[1,5-a][1,3,5]triazin-4-amine]",< 10 nM,–,< 1000 nM,< 100 nM,< 1000 nM,< 1000 nM,< 100 nM,< 1000 nM,< 1000 nM,< 1000 nM
"Cc1ccc(CNc2nc(C)nc3c(-c4ccc5c(c4)c(C)nn5C)c(C)nn23)cn1 [Example 22, 8-(1,3-dimethyl-1H-indazol-5-yl)-2,7-dimethyl-N-((6-methylpyridin-3-yl)methyl)pyrazolo[1,5-a][1,3,5]triazin-4-amine]",< 1 nM,< 1000 nM,< 10 nM,< 1 nM,< 100 nM,< 1000 nM,< 10 nM,< 100 nM,< 10 nM,< 100 nM
"Cc1nc(NCc2ccc(NS(C)(=O)=O)cc2)n2nc(C)c(-c3ccc4c(c3)c(C)nn4C)c2n1 [Example 26, N-(4-(((8-(1,3-dimethyl-1H-indazol-5-yl)-2,7-dimethylpyrazolo[1,5-a][1,3,5]triazin-4-yl)amino)meth-yl)phenyl)methane-sulfonamide]",< 1000 nM,< 1000 nM,< 100 nM,< 100 nM,< 100 nM,< 100 nM,< 100 nM,< 100 nM,< 10 nM,–
"Cc1nc(NCc2cccs2)n2nc(C)c(-c3ccc4c(c3)c(C)nn4C)c2n1 [Example 27, 8-(1,3-dimethyl-1H-indazol-5-yl)-2,7-dimethyl-N-(thiophen-2-ylmethyl)pyrazolo[1,5-a][1,3,5]triazin-4-amine]",< 100 nM,< 100 nM,< 1 nM,< 10 nM,< 100 nM,< 1 nM,< 100 nM,< 100 nM,< 1 nM,–
"COc1ccc(CNc2nc(C)nc3c(-c4ccc5c(c4)c(C)nn5C)c(C)nn23)cn1 [Example 28, 8-(1,3-dimethyl-1H-indazol-5-yl)-N-((6-methoxypyridin-3-yl)methyl)-2,7-dimethylpyrazolo[1,5-a][1,3,5]triazin-4-amine]",< 1000 nM,< 1000 nM,< 100 nM,< 100 nM,< 1000 nM,< 100 nM,< 100 nM,< 100 nM,< 10 nM,–

# From patent publication US11001587B2, “Substituted indazoles as phosphatidylinositol kinase inhibitors” (CUROVIR AB, priority 2017, dated 2021)
